Experimental data published in ChEMBL document CHEMBL1128276, “Quinazoline antifolate thymidylate synthase inhibitors: replacement of glutamic acid in the C2-methyl series” (J Med Chem, 1995).

What was measured:
Thymidylate synthase [1] = target: T1, Thymidylate synthase (Mus musculus, UniProt P07607); test: Ability to inhibit Thymidylate synthase purified from mouse L1210 leukemia cells that overproduce thymidylate synthase (TS)
L1210 [2] = test: Inhibition of L1210 cell growth; assay type: functional, cell-based; details: Mus musculus
L1210 (1565) [3] = test: Relative resistance was measured in L1210:1565 cell line; assay type: functional, cell-based; details: Mus musculus
L1210 (1565) [4] = test: Concentration to inhibit cell growth was measured on L1210:1565 cell line; assay type: functional, cell-based; details: Mus musculus
L1210 [5] = test: Ability to inhibit cell growth was measured on L1210 cells(horse serum); assay type: functional, cell-based; details: Mus musculus
Thymidylate synthase [6] = target: T1, Thymidylate synthase; test: Inhibition of thymidylate synthase purified from mouse L1210 leukemia cells that overproduce thymidylate synthase (TS); assay type: cell-free

T1 sequence (P07607 whole entry): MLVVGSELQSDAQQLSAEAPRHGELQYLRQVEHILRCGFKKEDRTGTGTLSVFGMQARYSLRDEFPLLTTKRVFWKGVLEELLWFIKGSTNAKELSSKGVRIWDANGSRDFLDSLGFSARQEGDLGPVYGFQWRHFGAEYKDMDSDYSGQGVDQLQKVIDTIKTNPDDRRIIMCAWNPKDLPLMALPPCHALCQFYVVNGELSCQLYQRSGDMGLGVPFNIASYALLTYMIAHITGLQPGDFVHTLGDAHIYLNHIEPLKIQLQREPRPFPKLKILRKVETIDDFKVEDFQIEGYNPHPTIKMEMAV

SMILES	IC50 (Thymidylate synthase [1]) [µM]	IC50 (L1210 [2]) [µM]	Relative resistance (L1210 (1565) [3]) [dimensionless ratio]	IC50 (L1210 (1565) [4]) [µM]	IC50 (L1210 [5]) [µM]	IC50 (Thymidylate synthase [6]) [µM]
C#CCN(Cc1cc2c(O)nc(C)nc2cc1C)c1ccc(C(=O)NCc2cccc(C#N)c2)c(F)c1	0.048	0.23	0.38	0.09	–	–
C#CCN(Cc1ccc2nc(C)nc(O)c2c1)c1ccc(C(=O)NCc2ccco2)cc1	–	–	–	–	6	1.42
C#CCN(Cc1ccc2nc(C)nc(O)c2c1)c1ccc(C(=O)NCCC)cc1	–	8.6	–	–	–	2.26
C#CCN(Cc1ccc2nc(C)nc(O)c2c1)c1ccc(C(=O)N[C@@H](C(=O)O)c2ccc(F)cc2)cc1	0.089	74	–	–	–	–
C#CCN(Cc1ccc2nc(C)nc(O)c2c1)c1ccc(C(=O)NCc2ccccc2[N+](=O)[O-])cc1	–	–	4.2	7.5	1.8	0.32
C#CCN(Cc1cc2c(O)nc(C)nc2cc1C)c1ccc(C(=O)NCc2cncs2)c(F)c1	0.11	0.62	0.39	0.24	–	–
C#CCN(Cc1ccc2nc(C)nc(O)c2c1)c1ccc(C(=O)N[C@H](C)C(=O)O)cc1	–	25	–	–	–	0.15
C#CCN(Cc1ccc2nc(C)nc(O)c2c1)c1ccc(C(=O)N[C@H](CCC(N)=O)C(=O)O)cc1	–	2.2	–	40	–	–
C#CCN(Cc1ccc2nc(C)nc(O)c2c1)c1ccc(C(=O)N[C@@H](C(=O)O)c2ccccc2)cc1	–	15	2	30	–	0.034
C#CCN(Cc1ccc2nc(C)nc(O)c2c1)c1ccc(C(=O)NCc2nccs2)cc1	0.76	6	0.83	5	–	–
C#CCN(Cc1ccc2nc(C)nc(O)c2c1)c1ccc(C(=O)N[C@@H](C(=O)O)C(C)C)cc1	–	0.96	23	23	–	0.058
C#CCN(Cc1ccc2nc(C)nc(O)c2c1)c1ccc(C(=O)NCc2cccc(C#N)c2)cc1	–	–	0.33	0.5	1.5	0.28
C#CCN(Cc1cc2c(O)nc(C)nc2cc1C)c1ccc(C(=O)NCc2nccs2)c(F)c1	0.1	0.66	0.76	0.5	–	–
C#CCN(Cc1cc2c(O)nc(C)nc2cc1C)c1ccc(C(=O)NCc2cccc([N+](=O)[O-])c2)c(F)c1	–	0.21	0.86	0.18	–	0.044
C#CCN(Cc1ccc2nc(C)nc(O)c2c1)c1ccc(C(=O)N[C@H](Cc2ccc([N+](=O)[O-])cc2)C(=O)O)cc1	–	> 20	–	–	–	0.042
C#CCN(Cc1ccc2nc(C)nc(O)c2c1)c1ccc(C(=O)NCc2ccc(Cl)cc2)cc1	–	–	–	–	70	7.7
C#CCN(Cc1ccc2nc(C)nc(O)c2c1)c1ccc(C(=O)NCc2cscn2)cc1	1.72	8	0.6	4.8	–	–
C#CCN(Cc1ccc2nc(C)nc(O)c2c1)c1ccc(C(=O)NCc2nc(C)cs2)cc1	0.77	1.7	0.91	1.6	–	–
C#CCN(Cc1cc2c(O)nc(C)nc2cc1C)c1ccc(C(=O)N[C@H](CCC(=O)O)C(=O)O)c(F)c1	–	0.08	74	5.92	–	0.009
C#CCN(Cc1ccc2nc(C)nc(O)c2c1)c1ccc(C(=O)N[C@H](Cc2ccccc2)C(=O)O)cc1	–	41	–	–	–	0.17
C#CCN(Cc1ccc2nc(C)nc(O)c2c1)c1ccc(C(=O)Nc2ccccc2)cc1	–	11	–	–	–	1.82

SMILES	IC50 (Thymidylate synthase [1]) [µM]	IC50 (L1210 [2]) [µM]	Relative resistance (L1210 (1565) [3]) [dimensionless ratio]	IC50 (L1210 (1565) [4]) [µM]	IC50 (L1210 [5]) [µM]	IC50 (Thymidylate synthase [6]) [µM]
C#CCN(Cc1cc2c(O)nc(C)nc2cc1C)c1ccc(C(=O)N[C@@H](C(=O)O)c2cccc([N+](=O)[O-])c2)c(F)c1	–	2.45	0.51	1.25	–	0.0044
C#CCN(Cc1ccc2nc(C)nc(O)c2c1)c1ccc(C(=O)NCC)cc1	–	7.2	–	–	–	22.9
C#CCN(Cc1ccc2nc(C)nc(O)c2c1)c1ccc(C(=O)NCc2ccsc2)cc1	–	5.5	–	–	–	1.46
C#CCN(Cc1ccc2nc(C)nc(O)c2c1)c1ccc(C(=O)NCc2cccc([N+](=O)[O-])c2)cc1	–	–	0.37	0.4	1.2	0.11
C#CCN(Cc1ccc2nc(C)nc(O)c2c1)c1ccc(C(=O)NCc2ccccn2)cc1	–	–	1.28	5	3.9	0.45
C#CCN(Cc1cc2c(O)nc(C)nc2cc1C)c1ccc(C(=O)N[C@@H](C(=O)O)C(C)(C)C)c(F)c1	0.007	0.88	6	5.28	–	–
C#CCN(Cc1ccc2nc(C)nc(O)c2c1)c1ccc(C(=O)NCc2cncs2)cc1	–	1.1	0.36	0.4	–	0.86
C#CCN(Cc1ccc2nc(C)nc(O)c2c1)c1ccc(C(=O)NC)cc1	–	25	–	–	–	4.2
C#CCN(Cc1ccc2nc(C)nc(O)c2c1)c1ccc(C(=O)NCC(=O)O)cc1	–	> 100	–	–	–	0.52
C#CCN(Cc1ccc2nc(C)nc(O)c2c1)c1ccc(C(=O)NCc2ccoc2)cc1	–	5.5	–	–	–	1.38
C#CCN(Cc1cc2c(O)nc(C)nc2cc1C)c1ccc(C(=O)NCc2ccccn2)c(F)c1	0.114	0.62	0.84	0.52	–	–
C#CCN(Cc1ccc2nc(C)nc(O)c2c1)c1ccc(C(=O)N[C@@H](C(=O)O)c2cccc([N+](=O)[O-])c2)cc1	–	9	1.4	13	–	0.024
C#CCN(Cc1ccc2nc(C)nc(O)c2c1)c1ccc(C(=O)N[C@@H](C(=O)O)c2cccc(O)c2)cc1	0.16	90	–	–	–	–
C#CCN(Cc1ccc2nc(C)nc(O)c2c1)c1ccc(C(=O)N[C@@H](C(=O)O)C(C)(C)C)cc1	–	2	7	14	–	0.058
C#CCN(Cc1ccc2nc(C)nc(O)c2c1)c1ccc(C(=O)N[C@H](CCC(=O)O)C(=O)O)cc1	–	0.09	–	8.2	–	–
C#CCN(Cc1cc2c(O)nc(C)nc2cc1C)c1ccc(C(=O)N[C@@H](C(=O)O)C(C)C)c(F)c1	0.006	1.7	1.71	2.91	–	–
C#CCN(Cc1ccc2nc(C)nc(O)c2c1)c1ccc(C(=O)NCc2ccc([N+](=O)[O-])cc2)cc1	–	–	–	–	2.2	0.32
C#CCN(Cc1ccc2nc(C)nc(O)c2c1)c1ccc(C(=O)N[C@H](CCC)C(=O)O)cc1	–	2.5	–	34	–	–
C#CCN(Cc1ccc2nc(C)nc(O)c2c1)c1ccc(C(=O)NCc2ccccc2)cc1	–	4	–	–	–	0.72
C#CCN(Cc1ccc2nc(C)nc(O)c2c1)c1ccc(C(=O)NCc2cccc(C(=O)O)c2)cc1	–	–	–	–	85	0.27
